{"source": "patent US20070166246A1", "about": "“Composition for oral cavity” (TOYO SHINYAKU CO., LTD., priority 2004, published 2007)", "test_system": "blood flow in the lower gingiva", "experiment": "Blood flow improvement in the gingiva using tablets (Example 3)", "type": "in vivo, human", "conditions": "gradually dissolved in the mouth (two tablets, about 2 mg extract; vitamin E 100 mg alone), four volunteers, mean ± standard deviation", "method": "Next, using the tablets, an experiment was conducted with respect to the effect of improving blood flow in a tissue (the gingiva) of the mouth through the cooperation of four of the five volunteers in Example 1. More specifically, first, the volunteers put two tablets in their mouths, and ingested the tablets into the body while gradually dissolving the tablets in their mouths. Next, at predetermined times (five minutes and 15 minutes) after completion of ingestion of the tablets, the blood flow in the lower gingiva was measured with a blood flow meter. It should be noted that the blood flow meter and others that were used herein are the same as those in Example 1. Moreover, as an example of a substance that improves blood flow, vitamin E (100 mg) alone was ingested while being gradually dissolved in the mouth, and the blood flow was also measured. Furthermore, the tablets containing the pine bark extract (two tablets) were ingested by being swallowed at one gulp with 10 mL of distilled water, instead of being gradually dissolved in the mouth, and the blood flow was also measured.\nThe results of the blood flow measurement are shown as relative values, taking the measurement results of the blood flow measurement performed before putting the tablets in the mouth as 100. […]"}
{"substance": "vitamin E", "values": [{"measurement": "blood flow in the lower gingiva, relative value (before putting the tablets in the mouth = 100)", "setting": "5 min after ingestion", "result": "116.99 ± 14.39"}, {"measurement": "blood flow in the lower gingiva, relative value (before putting the tablets in the mouth = 100)", "setting": "15 min after ingestion", "result": "105.63 ± 16.16"}]}
